Reference: PMC12689647, “Evaluation of bromadiolone combined with ciprofloxacin, vitamin D, aspirin, and cinnamon as an apoptosis-mediated rodenticide strategy” (Scientific Reports, 2025)
Where two headings read alike, the source gives them in different places.

Tests used:
cleaved caspase-3 = assay: Western blot of liver tissue, cleaved caspase-3; assay type: in vivo, Rattus norvegicus; conditions: Western blot normalized to β-actin, oral, 21 days
Procedure: (§1) Adult male rats (n = 7 × 9 = 63), weighing 150–200 g, were randomized and divided into seven groups. Group I served as the control. Group II received the vehicle control (0.1 ml/100 g ethanol). Group III was treated with bromadiolone (B) at ½ LD₅₀ (0.8 mg/kg)[28]. Group IV received bromadiolone (0.8 mg/kg) + ciprofloxacin (Anti.20 mg/kg)[29]. Group V received bromadiolone (0.8 mg/kg) + ciprofloxacin (20 mg/kg) + vitamin D (Vit. D 35 mg/kg)[30]. Group VI received bromadiolone (0.8 mg/kg) + ciprofloxacin (20 mg/kg) + vitamin D (35 mg/kg) + cinnamon (Cin. 2 g/kg)[31]. Group VII received bromadiolone (0.8 mg/kg) + ciprofloxacin (20 mg/kg) + vitamin D (35 mg/kg) + aspirin (A. 150 mg/kg)[32]. All doses were administered orally to wild rats over 21 days. The chemical we used for the euthanizing process: rats were narcotized by Ketamine + xylazine injection (IP) and then sacrificed by slaughtering.
For the immunodetection and quantification of proteins such as p21 and cleaved caspase-3, markers of apoptotic cell death under various treatments, liver tissue was homogenized using RIPA lysis buffer. The samples were chopped and briefly sonicated on ice, and protein concentration was measured. Proteins (20 µg) were separated using SDS-PAGE and transferred to a nitrocellulose membrane. […] The optical densities of the bands were quantified and normalized to β-actin (1:5000) using ImageJ software.

liver cells = assay: Apoptosis estimation by acridine orange fluorescence staining; assay type: in vivo, Rattus norvegicus; conditions: AO staining, oral, 21 days
Procedure: as §1
Before staining with 0.01% acridine orange (AO) (stock solution: 0.1% AO in distilled water, diluted with phosphate buffer to a staining solution at pH 7.2), the sample was quickly passed through a graded alcohol series (80 − 50%) followed by distilled water. […] Acridine orange emits sharp green fluorescence when bound to DNA (apoptosis).

[1] = tested on: male wild rats of Rattus norvegicus; assay type: in vivo; conditions: oral; for Mortality% / Dead: one week; for Linear probit / Linear response %: probit fit; for Dead: 8 treated
Procedure: An approximate LD₅₀ was initially determined as a pilot study using the staircase method. Seventy adult male rats weighing 150–200 g were randomized and divided into ten groups (n = 10 × 7). Group I served as the control, while groups II, III, IV, V, VI, VII, VIII, IX, and X were treated orally with the following doses of bromadiolone, respectively: 0.3, 0.6, 0.9, 1.1, 1.2, 1.4, 1.8, 2.2, and 2.8 mg/kg b.w. The animals were observed during the first 2 h and then at 6 and 24 h for any toxic symptoms. Time to death and mortality were recorded over four days following administration. After one week, the LD₅₀ value was determined using probit analysis as described in[27].

[2] = male wild rats, probit analysis software

O=c1oc2ccccc2c(O)c1C(CC(O)c1ccc(-c2ccc(Br)cc2)cc1)c1ccccc1 (stereo not drawn) [Bromadiolone]
increase in cleaved caspase-3 level compared to the control (cleaved caspase-3): 75.92%
decrease in normal cells compared to the control (liver cells): 18.66%
increase in apoptotic cells compared to the control (liver cells): 109.72%
Mortality% ([1]; dose 0.3 mg/kg b.w.): 12.5%
Observed response % ([1]; dose 0.3 mg/kg b.w., probit analysis): 14.286%
Linear probit ([1]; dose 0.3 mg/kg b.w.): 3.6051
Linear response % ([1]; dose 0.3 mg/kg b.w.): 8.159%
Mortality% ([1]; dose 0.6 mg/kg b.w.): 25%
Observed response % ([1]; dose 0.6 mg/kg b.w., probit analysis): 14.286%
Linear probit ([1]; dose 0.6 mg/kg b.w.): 4.1699
Linear response % ([1]; dose 0.6 mg/kg b.w.): 20.3258%
Dead ([1]; dose 0.9 mg/kg b.w.): 3
Mortality% ([1]; dose 0.9 mg/kg b.w.): 37.5%
Observed response % ([1]; dose 0.9 mg/kg b.w., probit analysis): 28.571%
Linear probit ([1]; dose 0.9 mg/kg b.w.): 4.5
Linear response % ([1]; dose 0.9 mg/kg b.w.): 30.855%
Dead ([1]; dose 1.1 mg/kg b.w.): 3
Mortality% ([1]; dose 1.1 mg/kg b.w.): 37.5%
Observed response % ([1]; dose 1.1 mg/kg b.w., probit analysis): 28.571%
Linear probit ([1]; dose 1.1 mg/kg b.w.): 4.6635
Linear response % ([1]; dose 1.1 mg/kg b.w.): 36.8278%
Dead ([1]; dose 1.2 mg/kg b.w.): 4
Mortality% ([1]; dose 1.2 mg/kg b.w.): 50%
Observed response % ([1]; dose 1.2 mg/kg b.w., probit analysis): 42.857%
Linear probit ([1]; dose 1.2 mg/kg b.w.): 4.7344
Linear response % ([1]; dose 1.2 mg/kg b.w.): 39.5276%
Dead ([1]; dose 1.4 mg/kg b.w.): 4
Mortality% ([1]; dose 1.4 mg/kg b.w.): 50%
Observed response % ([1]; dose 1.4 mg/kg b.w., probit analysis): 42.857%
Linear probit ([1]; dose 1.4 mg/kg b.w.): 4.8599
Linear response % ([1]; dose 1.4 mg/kg b.w.): 44.4304%
Dead ([1]; dose 1.8 mg/kg b.w.): 5
Mortality% ([1]; dose 1.8 mg/kg b.w.): 62.5%
Observed response % ([1]; dose 1.8 mg/kg b.w., probit analysis): 57.143%
Linear probit ([1]; dose 1.8 mg/kg b.w.): 5.0647
Linear response % ([1]; dose 1.8 mg/kg b.w.): 52.578%
Mortality% ([1]; dose 2.2 mg/kg b.w.): 62.5%
Observed response % ([1]; dose 2.2 mg/kg b.w., probit analysis): 57.143%
Linear probit ([1]; dose 2.2 mg/kg b.w.): 5.2281
Linear response % ([1]; dose 2.2 mg/kg b.w.): 59.022%
Dead ([1]; dose 2.8 mg/kg b.w.): 8
Mortality% ([1]; dose 2.8 mg/kg b.w.): 100%
Observed response % ([1]; dose 2.8 mg/kg b.w., probit analysis): 71.429%
Linear probit ([1]; dose 2.8 mg/kg b.w.): 5.4246
Linear response % ([1]; dose 2.8 mg/kg b.w.): 66.4427%
LD25 [1, 2]: 0.7264 mg/kg
LD50 [1, 2]: 1.6626 mg/kg
LD75 [1, 2]: 3.8056 mg/kg
LD90 [1, 2]: 8.0187 mg/kg
LD95 [1, 2]: 12.5257 mg/kg
LD99 [1, 2]: 28.9136 mg/kg
LT25, Time [1, 2]: 2.187 days
LT50, Time [1, 2]: 4.03 days
LT75, Time [1, 2]: 7.426 days
LT90, Time [1, 2]: 12.87 days
LT95, Time [1, 2]: 17.89 days
LT99, Time [1, 2]: 33.17 days
LD50 ([1]; male wild rats, probit analysis software, listed as bromadiolone): 1.6 mg/kg
Observed response % ([1]; time 1 day): 12.5%
Linear probit ([1]; time 1 day): 3.4617
Linear response % ([1]; time 1 day): 6.209%
Observed response % ([1]; time 2 days): 12.5%
Linear probit ([1]; time 2 days): 4.2266
Linear response % ([1]; time 2 days): 21.9652%
Observed response % ([1]; time 3 days): 37.5%
Linear probit ([1]; time 3 days): 4.6741
Linear response % ([1]; time 3 days): 37.2284%
Observed response % ([1]; time 4 days): 50%
Linear probit ([1]; time 4 days): 4.9918
Linear response % ([1]; time 4 days): 49.6729%
Linear probit ([1]; time 5 days): 5.2381
Linear response % ([1]; time 5 days): 59.4089%
Observed response % ([1]; time 7 days): 87.5%
Linear probit ([1]; time 7 days): 5.6093
Linear response % ([1]; time 7 days): 72.8843%
